Test results as given in PMC7713294, “Multiplicity of carotene patterns derives from competition between phytoene desaturase diversification and biological environments” (Scientific Reports, 2020).

Tests used:
Experiment in all cases: HPLC-UV time course, global Michaelis-Menten fit (COPASI)
Assay type in all cases: biochemical
[1] = molecular target: T1, I3_Rc (Rhodobacter capsulatus, UniProt P17054); conditions: phytoene liposomes (soy lecithin), FAD, pH 8.0, 30 °C, Kd = kr/kf fitted with bounded rate constants
T1 construct: gene crtI; full length, codon optimized, C-terminal His6, E. coli BL21(DE3), TALON purified with FAD; species only as initials
T1 sequence (P17054 whole entry): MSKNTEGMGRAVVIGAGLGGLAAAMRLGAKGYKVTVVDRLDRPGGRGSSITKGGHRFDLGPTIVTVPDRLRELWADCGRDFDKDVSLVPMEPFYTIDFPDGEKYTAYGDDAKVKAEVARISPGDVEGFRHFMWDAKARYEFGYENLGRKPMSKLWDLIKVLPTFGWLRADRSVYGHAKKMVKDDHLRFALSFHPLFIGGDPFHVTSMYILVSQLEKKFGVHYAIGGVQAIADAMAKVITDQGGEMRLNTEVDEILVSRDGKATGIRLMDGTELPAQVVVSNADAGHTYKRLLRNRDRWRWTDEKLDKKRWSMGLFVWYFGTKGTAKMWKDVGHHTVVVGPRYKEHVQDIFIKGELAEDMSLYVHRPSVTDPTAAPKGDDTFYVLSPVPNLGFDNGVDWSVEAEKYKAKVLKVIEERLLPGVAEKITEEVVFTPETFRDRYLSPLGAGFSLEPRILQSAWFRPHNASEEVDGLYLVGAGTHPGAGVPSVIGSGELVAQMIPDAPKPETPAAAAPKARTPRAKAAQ

[2] = molecular target: T2, I4_Bt (CrtI from Blakeslea trispora) (Blakeslea trispora, UniProt Q67GI0); conditions: phytoene liposomes (soy lecithin), FAD, pH 8.0, 30 °C; Kd = kr/kf fitted with bounded rate constants
T2 construct: gene carB; full length, codon optimized, C-terminal His6, E. coli BL21(DE3), TALON purified with FAD
T2 sequence (Q67GI0 1-582): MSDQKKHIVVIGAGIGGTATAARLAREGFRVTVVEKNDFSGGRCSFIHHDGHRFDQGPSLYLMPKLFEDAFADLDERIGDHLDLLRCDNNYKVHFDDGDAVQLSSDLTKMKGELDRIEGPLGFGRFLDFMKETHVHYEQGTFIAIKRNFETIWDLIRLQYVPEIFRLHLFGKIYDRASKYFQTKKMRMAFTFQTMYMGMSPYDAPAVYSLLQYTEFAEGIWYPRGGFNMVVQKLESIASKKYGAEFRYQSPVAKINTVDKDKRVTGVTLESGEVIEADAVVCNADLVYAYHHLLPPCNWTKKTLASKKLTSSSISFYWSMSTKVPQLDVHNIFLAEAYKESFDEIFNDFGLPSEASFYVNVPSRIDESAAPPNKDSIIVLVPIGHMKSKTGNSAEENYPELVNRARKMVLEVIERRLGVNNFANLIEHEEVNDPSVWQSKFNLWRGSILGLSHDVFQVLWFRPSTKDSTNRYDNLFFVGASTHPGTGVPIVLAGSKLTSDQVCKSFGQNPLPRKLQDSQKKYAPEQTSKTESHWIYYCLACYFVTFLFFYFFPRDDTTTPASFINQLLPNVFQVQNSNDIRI

[3] = molecular target: T3, I4_Ma (Mycolicibacterium aurum, UniProt Q9K566); conditions: phytoene liposomes (soy lecithin), FAD, pH 8.0, 30 °C, Kd = kr/kf fitted with bounded rate constants
T3 construct: gene crtI; full length, codon optimized, C-terminal His6, E. coli BL21(DE3), TALON purified with FAD; species only as initials (Ma), read as Mycobacterium aurum
T3 sequence (Q9K566 entry or part of it): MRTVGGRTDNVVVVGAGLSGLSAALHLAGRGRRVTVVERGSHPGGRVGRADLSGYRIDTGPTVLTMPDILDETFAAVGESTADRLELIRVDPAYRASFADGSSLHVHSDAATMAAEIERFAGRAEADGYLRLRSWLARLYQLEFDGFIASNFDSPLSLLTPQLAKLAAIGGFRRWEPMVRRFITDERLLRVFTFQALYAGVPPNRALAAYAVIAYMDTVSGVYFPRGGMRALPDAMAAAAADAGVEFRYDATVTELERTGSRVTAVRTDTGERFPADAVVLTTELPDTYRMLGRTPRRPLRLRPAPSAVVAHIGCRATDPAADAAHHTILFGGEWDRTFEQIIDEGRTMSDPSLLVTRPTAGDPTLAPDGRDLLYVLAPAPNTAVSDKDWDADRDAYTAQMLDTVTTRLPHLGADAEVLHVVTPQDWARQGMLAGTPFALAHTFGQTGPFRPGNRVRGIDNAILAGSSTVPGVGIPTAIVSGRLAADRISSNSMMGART

Row | Kd ([1]; lycopene production poorly fitted for I3_Rc) [nM] | Kd [2] [nM] | Kd ([3]; intermediate formed in situ from phytoene) [nM] | Kd [1] [nM] | Kd [3] [nM] | SMILES
1 | 33000 | 1600 | 2100 | – | – | CC(C)=CCC/C(C)=C/C=C/C(C)=C/C=C/C(C)=C/C=C/C=C(C)/C=C/C=C(\C)CC/C=C(\C)CCC=C(C)C [neurosporene]
2 | – | 7900 | – | 1100 | 13100 | CC(C)=CCC/C(C)=C/CC/C(C)=C/CC/C(C)=C/C=C\C=C(/C)CC/C=C(\C)CC/C=C(\C)CCC=C(C)C [phytoene]
3 | – | 4700 | – | 1000 | 1000 | CC(C)=CCC/C(C)=C/CC/C(C)=C/C=C/C(C)=C/C=C/C=C(\C)CC/C=C(\C)CC/C=C(\C)CCC=C(C)C [phytofluene]
4 | – | 2500 | – | 23000 | 2300 | CC(C)=CCC/C(C)=C/CC/C(C)=C/C=C/C(C)=C/C=C/C=C(C)/C=C/C=C(\C)CC/C=C(\C)CCC=C(C)C [ζ-carotene]
